Results as given in patent publication US9551711B2, “Compositions and methods for detecting nitration of PKG-1α and methods of use thereof” (Augusta University Research Institute, Inc., priority 2013, dated 2017).

Experiments:
PKG-1α [1] = assay: PKG-1α nitration (IP, 3-NT immunoblot) in transfected HEK-293T cells; assay type: cell-based, human; conditions: SIN-1 500 μM, 30 min
Description: Cells were homogenized in 3× weight/volume of IP buffer (25 mM Hepes, pH 7.5, 150 mM NaCl, 1% NP-40, 10 mM MgCl2, 1 mM EDTA, 2% glycerol, supplemented with protease inhibitor). The homogenates were then centrifuged at 20,000 g at 4° C. for 20 min, the supernatant was collected, and the protein concentration was quantified by the Bio-Rad DC Protein Assay. To 1000 μg of total protein, 4 μg of antibody against PKG-1α was added; the volume was brought to 1 ml with IP buffer, and the mixture was incubated at 4° C. overnight. To precipitate the bound protein, 30 μl of protein G plus agarose suspension (EMD biosciences, Inc., San Diego, Calif.) was added, and the samples were incubated for 2 h at 4° C. To collect the bead-bound antibody, the samples were then centrifuged at 2000 g for 5 min at 4° C., the supernatant was removed, and the beads were washed 3× with 500 μl of IP buffer. To the samples, 30 μl of 2× Laemmli buffer was added, and the samples were boiled for 5 min and then resolved using 4-20% Tris-SDS-Hepes PAGE. The membrane was then probed for 3-nitrotyrosine (1:100 dilution), as described above. The IP efficiency was normalized by re-probing for PKG-1α (1:500).
To determine the role of tyrosine 247 and tyrosine 425 in mediating the nitration dependent inhibition of PKG-1α kinase activity, Y247F- and Y425F-PKG-1α mutants were generated and expressed in HEK-293T cells. HEK-293T cells were transiently transfected with expression plasmids containing WT-, Y247F-, or Y425F-PKG-1α for 48 h. […] Protein extracts were immunoprecipitated using an antibody raised against PKG-1α and the level of nitrated PKG-1α determined by probing the membranes with an antiserum raised against 3-NT. The blots were then stripped and re-probed for PKG-1α to normalize for the efficiency of the immunoprecipitation.

PKG-1α [2] = assay: PKG-1α protein levels in transfected PASMC (Western blot); assay type: cell-based, lamb; conditions: SIN-1 500 μM, 48 h
Description: Therefore, the effect of these events were investigated in PASMC transiently transfected with expression plasmids containing WT- and Y247F-PKG-1α. The effect of nitration on pulmonary arterial smooth muscle cell (PASMC) growth and metabolism was determined. PASMC were transiently transfected with expression plasmids containing WT-PKG-1α, Y247F-PKG-1α or pDEST40 (as a control) for 20 h. Cells were then exposed or not to SIN-1 (500 μM, 48 h) and the effect on PKG protein levels (FIG. 2A) and activity determined (FIG. 2B).

[3] = system: pulmonary artery smooth muscle cells (PASMC); assay: PASMC cellular metabolism (alamarBlue assay); assay type: cell-based, lamb; conditions: WT-PKG-1α transfected PASMC; SIN-1 500 μM, 48 h
Description: This was determined via the alamarBlue assay (AbD Serotec, Oxford, UK). The assay is based on the reducing ability of metabolically active cells to convert the active reagent, resazurin, into a fluorescent and colorimetric indicator, resorufin. When added to cell cultures, the oxidized, resazurin enters the cytosol and is converted to the reduced, resorufin in the mitochondria by accepting electrons from NADH, NADPH, FADH2, FMNH2, as well as from the cytochromes. The non-toxic and cell permeable nature of alamarBlue permits the long-term exposure of cells. PASMC were grown on a 10 cm dish to 75% confluence, transfected with WT-PKG-1α or Y247F-PKG-1α cDNA, and incubated at 37° C. for 20 h. The cells were trypsinized and seeded onto a 24-well plate at a density of 20,000 cells per well and grown for an additional 4 h in serum and phenol free DMEM growth medium containing 1% FBS and antibiotics. The cells were then treated with or without SIN-1 (500 μM, 48 h) in the presence of 10% well volume of alamarBlue dye. The color change of the dye was determined at an excitation wavelength of 560 nm and an emission wavelength of 590 nm in a Fluoroskan Ascent plate reader. […] Cellular metabolism was expressed as follows: […]

3-NT-Y247-PKG-1α = 3-NT-Y247-PKG-1α immunoblot in transfected PASMC; assay type: cell-based, lamb; conditions: SIN-1 500 μM, 30 min

## 3-morpholinosydnonimine N-ethylcarbamide [SIN-1]
PKG-1α [1]; HEK-293T expressing WT-PKG-1α
  nitration of PKG-1α (3-NT/PKG-1α): significantly increased
PKG-1α [1]; HEK-293T expressing Y247F-PKG-1α
  nitration of PKG-1α (3-NT/PKG-1α): no significant increases
PKG-1α [1]; HEK-293T expressing Y425F-PKG-1α
  nitration of PKG-1α (3-NT/PKG-1α): no significant increases
PKG-1α [2]
  PKG-1α protein levels: no effect
[3]
  metabolism: stimulated
3-NT-Y247-PKG-1α; PASMC transfected with WT-PKG-1α
  PKG-1α nitration (3-NT-Y247-PKG-1α levels): significantly increased
3-NT-Y247-PKG-1α; PASMC, second construct of FIG. 4A
  nitration levels of 3-NT-Y247-PKG-1α: no significant increases
